Measurements published in patent publication US10233186B2, “Inhibitors of activin receptor-like kinase” (BLUEPRINT MEDICINES CORPORATION, priority 2016, dated 2019).

Key:
human ALK2 R206H = biological target: T1, human ALK2 R206H (Homo sapiens, UniProt Q04771, R206H); test: Cell-based ALK2-R206H cell activity assay (Smad1-Ser463/Ser465 phosphorylation by AlphaLISA in HEK293-ALK2-R206H cells); settings: read-out: Cell Line (Cell Assay IC50)
T1 construct: expressed in transfected cells; host or cells: HEK293 (ATCC CRL1573), lentivirus transduction, blasticidin selection
T1 sequence (Q04771 21-509 R206H): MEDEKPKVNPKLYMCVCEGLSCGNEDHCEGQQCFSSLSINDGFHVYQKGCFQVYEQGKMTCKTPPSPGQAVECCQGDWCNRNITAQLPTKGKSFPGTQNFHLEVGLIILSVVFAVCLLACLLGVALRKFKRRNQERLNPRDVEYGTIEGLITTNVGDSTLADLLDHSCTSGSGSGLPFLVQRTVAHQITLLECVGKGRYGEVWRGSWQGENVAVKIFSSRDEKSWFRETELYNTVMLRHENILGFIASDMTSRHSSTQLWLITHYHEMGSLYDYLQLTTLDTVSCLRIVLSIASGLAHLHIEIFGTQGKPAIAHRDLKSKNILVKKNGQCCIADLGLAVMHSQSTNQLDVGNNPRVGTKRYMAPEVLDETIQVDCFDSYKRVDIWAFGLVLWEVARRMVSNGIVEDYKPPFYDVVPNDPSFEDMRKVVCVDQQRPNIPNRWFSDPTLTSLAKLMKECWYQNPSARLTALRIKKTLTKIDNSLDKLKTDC
Procedure: A HEK293 (ATCC, Cat^# CRL1573) based stable cell line expressing human ALK2 R206H cDNA (synthesized by GeneScript, Piscataway, N.J.) and a FLAG tag at the C-terminus was generated by lentivirus transduction and subsequent blasticidin (Life Technologies, Cat^#-A1113902) selection at 10 μg/ml for >2 wks. This cell line was named HEK293-ALK2-R206H.
Test compounds were first diluted to 4 mM or 0.4 mM and then serially diluted 3-fold into 10 different concentrations using DMSO. […] Two μl of the diluted compounds were then dispensed into the HEK293-ALK2-R206H cell-containing wells of the microplates in duplicates. In this way, each compound was tested in 10 doses (3-fold serial dilution with the top concentration being 10 μM or 1 μM). Liquid handling was achieved using a Bravo Automated Liquid Handling Platform (Agilent Technologies). DMSO without compound was used as a negative control. The positive control was 1 μM LDN193189, a known bone morphogenetic protein (BMP inhibitor).
The 10-point dose response curve was used to calculate the IC50 values.
Blank values in the table indicate that the particular compound was not tested in this assay.

[1] = biological target: T2, ALK2 R206H (GST-tagged mutant ALK2) (Homo sapiens, UniProt Q04771, R206H); test: ALK binding assay (LANTHASCREEN TR-FRET competitive binding, displacement of Kinase Tracer 178); settings: ALK2 R206H, LANTHASCREEN TR-FRET competitive binding; read-out: Binding Assay (IC50)
T2 construct: purchased Carna Bioscience or ThermoFisher 09-148 or PV6232
T2 sequence (Q04771 21-509 R206H): T1 sequence (Q04771 21-509 R206H)

| Structure (SMILES) | IC50 (human ALK2 R206H) [nM] | IC50 [1] [nM] |
| --- | --- | --- |
| CC(C)N1CC[C@H](c2ccc(-c3cc4c(N5CCN(C(=O)C6CC6)CC5)ccnn4c3)cc2)C1 [Compound 204] | < 100 | < 10 |
| CCN1CCC(c2ccc(-c3cc4c(N5CCN(C(=O)OC(C)C)CC5)ccnn4c3)cc2)CC1 [Compound 285] | < 100 | < 10 |
| CCN1CCC(c2ccc(-c3cc4c(N5CCN(C(=O)C6CC6)CC5)ccnn4c3)cc2)C1 (centres unmarked) [Compound 147] | < 100 | < 10 |
| COC1(c2ccc(-c3cc4c(N5CCN(C(=O)NC(C)C)CC5)ccnn4c3)nc2)CCN([C@@H](C)COC(F)F)CC1 [Compound 894] | < 100 | < 10 |
| O=C(C1CC1)N1CCN(c2ccnn3cc(-c4ccc(C5CCCNC5)cc4)cc23)CC1 (centres unmarked) [Compound 123] | 100 to 500 | < 10 |
| Cc1cc([C@@H]2CCN(C(C)C)C2)ccc1-c1cc2c(N3CCN(C(=O)C4CC4)CC3)ccnn2c1 [Compound 255] | 100 to 500 | < 10 |
| CN1CCN(c2ccc(-c3cc4c(N5CCN(C(=O)C6CC6)CC5)ccnn4c3)cc2)CC1 [Compound 153] | 100 to 500 | < 10 |
| CCN1CCC(c2ccc(-c3cc4c(N5CCN(C(=O)[C@H]6C[C@@H]6C)CC5)ccnn4c3)cc2)C1 (some centres unmarked) [Compound 208] | < 100 | < 10 |
| O=C(C1CC1)N1CCN(c2ccnn3cc(-c4ccc(N5CCNCC5C(F)F)cc4)cc23)CC1 (centres unmarked) [Compound 297] | < 100 | < 10 |
| CC(C)N1CCC(O)(c2ccc(-c3cc4c(N5CCN(C(=O)C6CC6)CC5)ccnn4c3)cc2)C1 (centres unmarked) [Compound 271] | 100 to 500 | < 10 |
| O=C(C1CC1)N1CCN(c2ccnn3cc(-c4ccc(OCC5CNC5)cc4)cc23)CC1 [Compound 134] | 100 to 500 | < 10 |
| COC1(c2ccc(-c3cc4c(N5CCN(C(=O)[C@H]6C[C@H](C#N)C6)CC5)ccnn4c3)nc2)CCN(C2COC2)CC1 [Compound 870] | < 100 | < 10 |
| CCN1CCN(c2ccc(-c3cc4c(N5CCN(C(=O)C(C)C)CC5)ccnn4c3)cc2)CC1 [Compound 223] | 100 to 500 | 10 to 50 |
| CCOC1(c2ccc(-c3cc4c(N5CCN(C(=O)OC6COC6)CC5)ccnn4c3)nc2)CCN(C(C)C)CC1 [Compound 734] | < 100 | < 10 |
| O=C(C1CC1)N1CCN(c2ccnn3cc(-c4cccc(C5CNCCO5)c4)cc23)CC1 (centres unmarked) [Compound 128] | 100 to 500 | 10 to 50 |
| CCOC(=O)N1CCN(c2ccnn3cc(-c4ccc(C5CCN(CC)CC5)cc4)cc23)CC1 [Compound 230, ethyl 4-(6-(4-(1-ethylpiperidin-4-yl)phenyl)pyrrolo[1,2-b]pyridazin-4-yl)piperazine-1-carboxylate] | < 100 | < 10 |
| CCN1CC(F)C(c2ccc(-c3cc4c(N5CCN(C(=O)C6CC6)CC5)ccnn4c3)cc2)C1 (centres unmarked) [Compound 228] | < 100 | < 10 |
| O=C(C1CC1)N1CCN(c2ccnn3cc(-c4ccc(N5CCNC6(COC6)C5)cc4)cc23)CC1 [Compound 260, (4-(6-(4-(2-oxa-5,8-diazaspiro[3.5]nonan-8-yl)phenyl)pyrrolo[1,2-b]pyridazin-4-yl)piperazin-1-yl)(cyclopropyl)methanone] | 100 to 500 | < 10 |
| CC(C)(C#N)c1ccc(-c2cc3c(N4CCN(C(=O)C5CC5)CC4)ccnn3c2)cc1 [Compound 110] | 100 to 500 | 10 to 50 |
| O=C(C1CC1)N1CCN(c2ccnn3cc(-c4ccc(N5CCNCC5)cc4)cc23)CC1 [Compound 127, cyclopropyl(4-(6-(4-(piperazin-1-yl)phenyl)pyrrolo[1,2-b]pyridazin-4-yl)piperazin-1-yl)methanone] | < 100 | < 10 |
| CCN1CC(Oc2ccc(-c3cc4c(N5CCN(C(=O)C6CC6)CC5)ccnn4c3)cc2)C1 [Compound 167] | < 100 | < 10 |
| CCOC(=O)N1CCN(c2ccnn3cc(-c4ccc(C5(C)CCN(C(C)C)CC5)cc4)cc23)CC1 [Compound 585] | < 100 | < 10 |
| O=C(C1CC1)N1CCN(c2ccnn3cc(-c4cnn(C5CCCNC5)c4)cc23)CC1 (centres unmarked) [Compound 116] | < 100 | < 10 |
| CCOC1(c2ccc(-c3cc4c(N5CCN(C(=O)OCCC#N)CC5)ccnn4c3)nc2)CCN(C(C)C)CC1 [Compound 854] | < 100 | < 10 |

Now from value to compound:

| IC50 (human ALK2 R206H) [nM] | IC50 [1] [nM] | Structure (SMILES) |
| --- | --- | --- |
| > 500 | 10 to 50 | O=C(C1CC1)N1CCN(c2ccnn3cc(-c4ccc(N5CCN(C6COC6)CC5)cc4)cc23)CC1 [Compound 314, cyclopropyl(4-(6-(4-(4-(oxetan-3-yl)piperazin-1-yl)phenyl)pyrrolo[1,2-b]pyridazin-4-yl)piperazin-1-yl)methanone] |
| > 500 | 10 to 50 | O=C(C1CC1)N1CCN(c2ccnn3cc(-c4ccc(N5CCNC(C(F)(F)F)C5)cc4)cc23)CC1 (centres unmarked) [Compound 373] |
| < 100 | < 10 | CC(C)N1CCN(C)[C@H](c2ccc(-c3cc4c(N5CCN(C(=O)C6CC6)CC5)ccnn4c3)cc2)C1 [Compound 568] |
| < 100 | < 10 | CCNC(=O)N1CCN(c2ccnn3cc(-c4ccc([C@@]5(O)CCCN(C(C)C)C5)cc4)cc23)CC1 [Compound 592] |
| < 100 | < 10 | CC(C)N1CC2(CN(c3ccc(-c4cc5c(N6CCN(C(=O)[C@H]7CC[C@H](C#N)CC7)CC6)ccnn5c4)cc3)C2)C1 [Compound 442] |
| < 100 | < 10 | CC(N)(CO)c1ccc(-c2cc3c(N4CCN(C(=O)OC5COC5)CC4)ccnn3c2)cc1 (centres unmarked) [Compound 771] |
| < 100 | < 10 | CCOC(=O)N1CCN(c2ccnn3cc(-c4ccc([C@]5(C)CN(C(C)C)CCN5)cc4)cc23)CC1 [Compound 598] |
| < 100 | < 10 | CCN1CC2(C1)CN(c1ccc(-c3cc4c(N5CCN(C(=O)[C@H]6C[C@H]6F)CC5)ccnn4c3)cc1)C2 [Compound 333] |
| < 100 | < 10 | CC(C)N1CCN(C)[C@@H](c2ccc(-c3cc4c(N5CCN(C(=O)C6CC6)CC5)ccnn4c3)cc2)C1 [Compound 567] |
| < 100 | < 10 | CC(C)NC(=O)N1CCN(c2ccnn3cc(-c4cnn([C@H]5CCCN(C(C)C)C5)c4)cc23)CC1 [Compound 557] |
| < 100 | < 10 | CC(C)N1CCC[C@](F)(c2ccc(-c3cc4c(N5CCN(C(=O)OC6COC6)CC5)ccnn4c3)cc2)C1 [Compound 691] |
| < 100 | < 10 | CCN1CCC(c2ccc(-c3cc4c(N5CCN(C(=O)N6CC(C#N)C6)CC5)ccnn4c3)cc2)CC1 [Compound 370] |
| < 100 | < 10 | CCN1CC[C@@H](c2ccc(-c3cc4c(N5CCN(C(=O)N6CC(C#N)C6)CC5)ccnn4c3)cc2)C1 [Compound 303] |
| < 100 | < 10 | CO[C@@]1(c2ccc(-c3cc4c(N5CCN(C(=O)NC(C)C)CC5)ccnn4c3)cc2F)CCCN(C(C)C)C1 [Compound 724] |
| > 500 | > 50 | CCN1CCN(c2ccc(-c3cc4c(N5CCN(C(=O)[C@H]6C[C@@H](O)C6)CC5)ccnn4c3)cc2)CC1 [Compound 335] |
| < 100 | < 10 | CC(C)NC(=O)N1CCN(c2ccnn3cc(-c4ccc([C@H]5CCN(C(C)C)C5)cc4)cc23)CC1 [Compound 533] |
| 100 to 500 | < 10 | CC(C)N1CCC(c2ccc(-c3cc4c(N5CCN(C(=O)NCC(C)(C)C)CC5)ccnn4c3)cc2)CC1 [Compound 664] |
| < 100 | < 10 | CCNC(=O)N1CCN(c2ccnn3cc(-c4ccc([C@]5(O)CCCN(C(C)C)C5)cc4)cc23)CC1 [Compound 591] |
| < 100 | < 10 | CC(C)N1CCC(c2ccc(-c3cc4c(N5CCN(C(=O)OC6CC6)CC5)ccnn4c3)cc2)CC1 [Compound 795] |
| > 500 | < 10 | COC(=O)NC1(c2ccc(-c3cc4c(N5CCN(C(=O)C6CC6)CC5)ccnn4c3)cc2)CCNCC1 [Compound 622] |
| < 100 | < 10 | CCCNC(=O)N1CCN(c2ccnn3cc(-c4ccc([C@@H]5CCN(C(C)C)C5)cc4)cc23)CC1 [Compound 530] |
| < 100 | < 10 | CC(C)N1CCC[C@H](c2ccc(-c3cc4c(N5CCN(C(=O)[C@H]6C[C@H](C#N)C6)CC5)ccnn4c3)cc2)C1 [Compound 409] |
